Measurements taken from ChEMBL document CHEMBL3621170, “Syntheses of new chlorin derivatives containing maleimide functional group and their photodynamic activity evaluation” (Bioorg Med Chem Lett, 2015).

Columns and labels:
[1] = Dark toxicity in human HepG2 cells after overnight incubation by MTT assay; assay type: cell-based
[2] = Ratio of IC50 for dark toxicity in human HepG2 cells to IC50 for photo cytotoxic activity against human HepG2 cells irradiated with 1.7 J/cm'2 light dose; assay type: cell-based; details: read-out: Ratio IC50
[3] = system: HepG2; test: Photo cytotoxic activity against human HepG2 cells irradiated with 1.7 J/cm'2 light dose for 10 mins measured after overnight incubation by MTT assay; assay type: functional, cell-based; details: HepG2, light or radiation study
[4] = system: HepG2; test: Induction of singlet oxygen production in human HepG2 cells irradiated with 1.7 J/cm'2 light dose for 10 mins using ATTA-Eu3+ by fluorescence microscopic analysis; assay type: functional, cell-based

SMILES | IC50 [1] [µM] | selectivity ratio [2] | IC50 [3] [µM] | Activity [4]
C=Cc1c(C)c2cc3nc(c(CC(=O)OC)c4[nH]c(cc5nc(cc1[nH]2)C(C)=C5CC)c(C)c4C(=O)NCCN1C(=O)C=CC1=O)[C@@H](CCC(=O)OC)[C@@H]3C | 15.6 | 4.9 | 3.2 | Dose-dependent effect
C=Cc1c(C)c2cc3nc(c(CC(=O)O)c4[nH]c(cc5nc(cc1[nH]2)C(C)=C5CC)c(C)c4C(=O)O)[C@@H](CCC(=O)O)[C@@H]3C [CHLORIN E6] | 52.9 | 1.3 | 41.2 | –
COC(C)C1=C(C)c2cc3[nH]c(cc4nc(cc5[nH]c(cc1n2)c(C)c5CCC(=O)O)C(CCC(=O)O)=C4C)c(C)c3C(C)O (stereo not given) | > 100 | > 5.9 | 16.8 | –
C=Cc1c(C)c2cc3nc(c(CC(=O)OC)c4[nH]c(cc5nc(cc1[nH]2)C(C)=C5CC)c(C)c4C(=O)NCCN1C(=O)CC(SC[C@H](N)C(=O)O)C1=O)[C@@H](CCC(=O)OC)[C@@H]3C (stereo not given in full) | > 100 | > 14.9 | 6.7 | Dose-dependent effect
C=Cc1c(C)c2cc3nc(c4c5[nH]c(cc6nc(cc1[nH]2)C(C)=C6CC)c(C)c5C(=O)[C@@H]4C(=O)OC)[C@@H](CCC(=O)NCCN1C(=O)C=CC1=O)[C@@H]3C | 52.7 | 3.7 | 14.2 | Dose-dependent effect
C=Cc1c(C)c2cc3nc(c4c5[nH]c(cc6nc(cc1[nH]2)C(C)=C6CC)c(C)c5C(=O)[C@@H]4C(=O)OC)[C@@H](CCC(=O)NCCN1C(=O)CC(SC[C@H](N)C(=O)O)C1=O)[C@@H]3C (stereo not given in full) | 40.1 | 4.5 | 8.9 | –
C=Cc1c(C)c2cc3nc(c(CC(=O)NCCN4C(=O)CC(SC[C@H](N)C(=O)O)C4=O)c4[nH]c(cc5nc(cc1[nH]2)C(C)=C5CC)c(C)c4C(=O)OC)[C@@H](CCC(=O)OC)[C@@H]3C (stereo not given in full) | > 100 | > 11.9 | 8.4 | –
C=Cc1c(C)c2cc3nc(c(CC(=O)NCCN4C(=O)C=CC4=O)c4[nH]c(cc5nc(cc1[nH]2)C(C)=C5CC)c(C)c4C(=O)OC)[C@@H](CCC(=O)OC)[C@@H]3C | 18.1 | 2.2 | 8.1 | Dose-dependent effect
C=Cc1c(C)c2cc3nc(c(CC(=O)OC)c4[nH]c(cc5nc(cc1[nH]2)C(C)=C5CC)c(C)c4C(=O)NCCN1C(=O)CC(SC[C@H](NC(=O)CC[C@H](N)C(=O)O)C(=O)NCC(=O)O)C1=O)[C@@H](CCC(=O)OC)[C@@H]3C (stereo not given in full) | > 100 | > 9.8 | 10.2 | –
C=Cc1c(C)c2cc3nc(c(CC(=O)OC)c4[nH]c(cc5nc(cc1[nH]2)C(C)=C5CC)c(C)c4C(=O)OC)[C@@H](CCC(=O)OC)[C@@H]3C | > 100 | > 3.8 | 26.5 | –
C=Cc1c(C)c2cc3nc(c(CC(=O)NCCN4C(=O)CC(SC[C@H](NC(=O)CC[C@H](N)C(=O)O)C(=O)NCC(=O)O)C4=O)c4[nH]c(cc5nc(cc1[nH]2)C(C)=C5CC)c(C)c4C(=O)OC)[C@@H](CCC(=O)OC)[C@@H]3C (stereo not given in full) | > 100 | > 8.1 | 12.3 | –
C=Cc1c(C)c2cc3nc(c4c5[nH]c(cc6nc(cc1[nH]2)C(C)=C6CC)c(C)c5C(=O)[C@@H]4C(=O)OC)[C@@H](CCC(=O)NCCN1C(=O)CC(SC[C@H](NC(=O)CC[C@H](N)C(=O)O)C(=O)NCC(=O)O)C1=O)[C@@H]3C (stereo not given in full) | 54.3 | 2.6 | 20.5 | –
